Data from PubChem BioAssay AID1117338.
Calls of active or inactive are those of the source. The rule behind the calls is not given here.

Test system: SW480 viability, CellTiter-Glo luminescence
Test: 50% inhibitory concentration in SW480 colon cancer line, survival by CellTiter-Glo luminescence, dose-dependent response (AID 1117338)

| SMILES | IC50 |
| --- | --- |
| Cc1ccc([N+](=O)[O-])[c]2c1[O][Hg]2 | 1130 nM |
| O=C(O)C1(C(=O)O)CCC1.[NH2-].[NH2-].[Pt+2] | > 20000 nM (inactive) |
| CC(=O)[O][Hg][c]1ccccc1 | 543 nM |
| Cn1cnc([N+](=O)[O-])c1Sc1ncnc2nc[nH]c12 | 9440 nM (inactive) |
| O=Cc1ccc(O)c(O)c1O | 11300 nM (inactive) |
| O=C1[O][Bi][O]c2ccccc21 | > 20000 nM (inactive) |
| CCCCCCCCCCCCCC[N+](C)(C)C | 933 nM |
| OCCN1CCN(CC/C=C2/c3ccccc3Sc3ccc(C(F)(F)F)cc32)CC1 | 3930 nM |
